Key:
[1] = target: recombinant human FGFR3 (amino acids R397-T806) (Homo sapiens (Human), UniProt P22607); test: FGFR3 enzyme activity assay (LanthaScreen TR-FRET); type: biochemical; conditions: 25 μM ATP, 10 min incubation at 22° C., average of multiple determinations if made, read-out: FGFR3 Enz FRET IC50
Procedure, shortened: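 GST-HIS6-tagged human FGFR3 (R397-T806) was reacted with 100 nM Alexa Fluor 647-Poly-GT substrate and 25 μM ATP plus compound in HEPES/MgCl2/Triton buffer, pH 7.5, 2% DMSO, for 10 min at 22 °C.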

dephosphorylated FGFR2 = dephosphorylated FGFR2 (Homo sapiens (Human), UniProt P21802); test: FGFR enzyme binding assay (HTRF tracer displacement), FGFR2; conditions: 5 nM dephosphorylated FGFR2, average of multiple determinations if made
Sequence of dephosphorylated FGFR2 (P21802 22-821): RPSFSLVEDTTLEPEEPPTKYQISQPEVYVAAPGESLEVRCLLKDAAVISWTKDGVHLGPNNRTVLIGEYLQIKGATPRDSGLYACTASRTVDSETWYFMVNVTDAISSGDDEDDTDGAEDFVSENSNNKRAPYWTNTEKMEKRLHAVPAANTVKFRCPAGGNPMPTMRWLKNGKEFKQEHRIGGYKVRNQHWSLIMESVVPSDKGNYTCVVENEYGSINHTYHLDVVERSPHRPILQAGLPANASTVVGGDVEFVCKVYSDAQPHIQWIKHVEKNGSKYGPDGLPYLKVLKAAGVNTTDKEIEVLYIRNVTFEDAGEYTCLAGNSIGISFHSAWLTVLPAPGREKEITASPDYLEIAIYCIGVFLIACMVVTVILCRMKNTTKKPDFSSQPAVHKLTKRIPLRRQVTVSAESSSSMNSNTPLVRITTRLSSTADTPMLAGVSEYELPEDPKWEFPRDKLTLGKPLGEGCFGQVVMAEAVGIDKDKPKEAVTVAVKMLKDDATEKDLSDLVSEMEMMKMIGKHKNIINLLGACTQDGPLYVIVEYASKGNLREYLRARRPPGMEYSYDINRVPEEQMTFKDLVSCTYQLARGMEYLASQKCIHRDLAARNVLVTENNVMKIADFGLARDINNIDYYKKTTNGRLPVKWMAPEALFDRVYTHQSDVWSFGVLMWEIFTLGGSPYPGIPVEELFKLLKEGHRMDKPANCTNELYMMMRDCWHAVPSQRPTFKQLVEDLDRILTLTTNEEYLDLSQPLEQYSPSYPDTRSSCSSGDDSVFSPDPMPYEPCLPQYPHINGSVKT
Protocol: The potency of compounds inhibiting human isoforms of FGFR kinase was determined using Life Technologies' Homogeneous Time Resolved Fluorescence (HTRF)-based binding assay technology. […] After a 60 minute incubation at 22° C., the extent of tracer displacement was determined using a PerkinElmer EnVision multimode plate reader via HTRF dual wavelength detection, and the percent of control (POC) was calculated using a ratiometric emission factor. One hundred POC was determined using no test compound, and 0 POC was determined in the presence of 1 μM of an appropriate control inhibitor.

[2] = target: recombinant human FGFR2 cytoplasmic domain (amino acids 403-822) (Homo sapiens (Human), UniProt P21802); test: FGFR2 enzyme activity assay (LanthaScreen TR-FRET); type: biochemical; conditions: 15 μM ATP, 20 min incubation at 22° C., average of multiple determinations if made, read-out: FGFR2 Enz FRET IC50
Sequence of recombinant human FGFR2 cytoplasmic domain (amino acids 403-822) (P21802 402-821): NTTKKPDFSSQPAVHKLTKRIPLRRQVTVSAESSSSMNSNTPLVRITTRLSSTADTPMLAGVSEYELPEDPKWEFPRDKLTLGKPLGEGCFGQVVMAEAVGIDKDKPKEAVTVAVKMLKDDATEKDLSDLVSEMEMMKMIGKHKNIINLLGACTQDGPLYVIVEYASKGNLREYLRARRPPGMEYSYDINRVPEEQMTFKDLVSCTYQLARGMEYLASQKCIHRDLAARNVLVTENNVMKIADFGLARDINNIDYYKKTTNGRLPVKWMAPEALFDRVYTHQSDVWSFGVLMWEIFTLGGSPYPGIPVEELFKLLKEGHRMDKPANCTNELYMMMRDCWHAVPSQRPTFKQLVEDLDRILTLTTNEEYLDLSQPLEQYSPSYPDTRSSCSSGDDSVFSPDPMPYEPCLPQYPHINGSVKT
Procedure, shortened: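 Substrate phosphorylation was read by TR-FRET using Eu-PY20 antibody (60 min, 22 °C) after a 20 min, 22 °C reaction. The reaction used 15 μM ATP, 100 nM fluorescent poly-GT peptide and His-tagged FGFR2 403-822 ([…]) at pH 7.5 with 2% DMSO.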

[3] = target: FGFR1 (SEQ ID NO: 1, amino acids 458-765) (Homo sapiens (Human), UniProt P11362); test: LC/MS FGFR1 kobs assay (covalent protein modification); type: binding; conditions: 500 nM FGFR1, 3 μM compound
Sequence of FGFR1 (SEQ ID NO: 1, amino acids 458-765) (P11362 458-765): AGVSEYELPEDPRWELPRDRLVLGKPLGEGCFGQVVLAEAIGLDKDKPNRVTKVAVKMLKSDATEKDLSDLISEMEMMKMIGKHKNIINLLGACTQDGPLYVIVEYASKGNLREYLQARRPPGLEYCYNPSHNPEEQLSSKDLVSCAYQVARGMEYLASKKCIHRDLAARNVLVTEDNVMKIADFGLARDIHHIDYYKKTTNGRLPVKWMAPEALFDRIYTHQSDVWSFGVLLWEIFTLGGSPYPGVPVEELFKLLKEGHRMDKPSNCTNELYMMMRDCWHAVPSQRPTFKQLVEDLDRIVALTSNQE
Procedure, shortened: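 Covalent labeling of FGFR1 kinase domain (aa 458-765) tracked over time by intact-protein LC/MS after formic acid quench. kobs derived by fitting DMSO-normalized percent unmodified FGFR1 to an exponential decay model.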

[4] = target: dephosphorylated FGFR1 (SEQ ID NO: 1, amino acids 458 to 765) (Homo sapiens (Human), UniProt P11362); test: FGFR enzyme binding assay (HTRF tracer displacement), FGFR1; conditions: 5 nM dephosphorylated FGFR1, average of multiple determinations if made
Sequence of dephosphorylated FGFR1 (SEQ ID NO: 1, amino acids 458 to 765) (P11362 458-765): as above
Procedure, shortened: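 Kinase and tracer were incubated with compound for 60 minutes at 22° C. Tracer displacement was then measured by HTRF, and results were expressed as POC with 1 μM control inhibitor defining full displacement.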

[5] = target: HEK-293 cells transfected with dox-inducible human wild type FGFR3 (Homo sapiens (Human), UniProt P22607); test: FGFR3 pFGFR cell assay (ELISA); type: cell-based; conditions: HEK-293 dox-inducible FGFR3, 1 hour compound, 100 ng/ml FGF-acidic
Sequence of HEK-293 cells transfected with dox-inducible human wild type FGFR3 (P22607 23-806): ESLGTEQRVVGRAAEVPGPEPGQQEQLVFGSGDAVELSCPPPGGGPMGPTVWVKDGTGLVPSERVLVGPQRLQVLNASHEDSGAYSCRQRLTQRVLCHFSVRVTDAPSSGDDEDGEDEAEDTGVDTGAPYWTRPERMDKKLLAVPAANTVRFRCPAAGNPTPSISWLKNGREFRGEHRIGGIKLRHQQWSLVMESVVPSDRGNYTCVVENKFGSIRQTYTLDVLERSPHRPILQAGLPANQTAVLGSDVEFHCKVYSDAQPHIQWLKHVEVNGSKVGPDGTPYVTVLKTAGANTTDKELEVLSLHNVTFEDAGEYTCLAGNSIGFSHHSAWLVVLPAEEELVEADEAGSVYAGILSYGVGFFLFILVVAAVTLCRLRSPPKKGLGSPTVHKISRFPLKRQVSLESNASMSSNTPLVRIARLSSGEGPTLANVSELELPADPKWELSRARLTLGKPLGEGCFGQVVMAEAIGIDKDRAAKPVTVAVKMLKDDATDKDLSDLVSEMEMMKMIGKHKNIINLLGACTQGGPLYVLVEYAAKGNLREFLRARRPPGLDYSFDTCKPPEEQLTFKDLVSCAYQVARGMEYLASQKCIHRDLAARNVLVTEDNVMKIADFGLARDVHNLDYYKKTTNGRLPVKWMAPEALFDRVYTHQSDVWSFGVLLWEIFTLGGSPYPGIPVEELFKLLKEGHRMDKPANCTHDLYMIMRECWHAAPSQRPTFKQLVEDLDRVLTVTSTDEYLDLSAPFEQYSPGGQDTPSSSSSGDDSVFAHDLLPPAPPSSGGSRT
Procedure, shortened: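 Doxycycline-induced (1 μg/ml) HEK-293 cells expressing wild-type human FGFR3, treated 1 h with compound (1:3 series, top final 5 μM), then stimulated 5 min with 100 ng/ml FGF-acidic. Phospho-FGFR3 measured by ELISA (total FGFR3 capture, phosphotyrosine detection, OD 450 nm); IC50 from 4-parameter fit of POC values.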

Sequence of recombinant human FGFR3 (amino acids R397-T806) (P22607 397-806): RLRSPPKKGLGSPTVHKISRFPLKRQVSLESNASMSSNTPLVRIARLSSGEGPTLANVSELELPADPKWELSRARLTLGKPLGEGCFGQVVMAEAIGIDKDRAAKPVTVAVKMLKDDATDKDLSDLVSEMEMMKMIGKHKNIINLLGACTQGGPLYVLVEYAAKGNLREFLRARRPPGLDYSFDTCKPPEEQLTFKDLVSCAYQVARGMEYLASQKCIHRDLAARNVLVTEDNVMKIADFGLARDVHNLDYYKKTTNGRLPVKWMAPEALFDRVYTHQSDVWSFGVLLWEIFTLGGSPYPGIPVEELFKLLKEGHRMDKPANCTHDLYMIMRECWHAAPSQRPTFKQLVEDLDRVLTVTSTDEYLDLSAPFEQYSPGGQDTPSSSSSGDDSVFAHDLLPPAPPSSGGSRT

SMILES	IC50 [1] [nM]	IC50 (dephosphorylated FGFR2) [nM]	IC50 [2] [nM]	FGFR1 Enz kobs [3] [min⁻¹]	IC50 [4] [nM]	IC50 [5] [nM]
C=CC(=O)N1CC(OC)(C(=O)N2CCC(n3nc(C)c(-c4cc(OC)c5c(C#N)cnn5c4)c3C)CC2)C1 [Example 95, 6-(1-(1-(1-acryloyl-3-methoxyazetidine-3-carbonyl)piperidin-4-yl)-3,5-dimethyl-1H-pyrazol-4-yl)-4-methoxypyrazolo[1,5-a]pyridine-3-carbonitrile]	103	155	324	0.00409	675	
C=CC(=O)N1CC(C(=O)N2CCC3(CC2)CN(c2ccc(-c4cc(OC)c5c(C#N)cnn5c4)cn2)C3)C1 [Example 102, 6-(6-(7-(1-acryloylazetidine-3-carbonyl)-2,7-diazaspiro[3.5]nonan-2-yl)pyridin-3-yl)-4-methoxypyrazolo[1,5-a]pyridine-3-carbonitrile]	22	22	11	0.00313	44	
C=CC(=O)N1CC(C(=O)N2CCC3(C2)CN(c2ccc(-c4cc(OC)c5c(C#N)cnn5c4)cn2)C3)C1 [Example 103, 6-(6-(6-(1-acryloylazetidine-3-carbonyl)-2,6-diazaspiro[3.4]octan-2-yl)pyridin-3-yl)-4-methoxypyrazolo[1,5-a]pyridine-3-carbonitrile]	20	39	10	0.00388	70	
C=CC(=O)N1CC(C(=O)N2CC3(C2)CN(c2ccc(-c4cc(OC)c5c(C#N)cnn5c4)cn2)C3)C1 [Example 104, 6-(6-(6-(1-acryloylazetidine-3-carbonyl)-2,6-diazaspiro[3.3]heptan-2-yl)pyridin-3-yl)-4-methoxypyrazolo[1,5-a]pyridine-3-carbonitrile]	20	45	20	0.00386	72	
C=CC(=O)N1CC(C(=O)N2CC3CC(C2)N3c2ccc(-c3cc(OC)c4c(C#N)cnn4c3)cn2)C1 [Example 105, 6-(6-(3-(1-acryloylazetidine-3-carbonyl)-3,6-diazabicyclo[3.1.1]heptan-6-yl)pyridin-3-yl)-4-methoxypyrazolo[1,5-a]pyridine-3-carbonitrile]	125	226	42	0.00042	435	
C=CC(=O)N1CC(C(=O)N2C[C@@H]3C[C@H]2CN3c2ccc(-c3cc(OC)c4c(C#N)cnn4c3)cn2)C1 [Example 106, 6-(6-((1S,4S)-5-(1-acryloylazetidine-3-carbonyl)-2,5-diazabicyclo[2.2.1]heptan-2-yl)pyridin-3-yl)-4-methoxypyrazolo[1,5-a]pyridine-3-carbonitrile]	25	30	11	0.00246	62	
C=CC(=O)N1CC(C(=O)N2C[C@H]3C[C@@H]2CN3c2ccc(-c3cc(OC)c4c(C#N)cnn4c3)cn2)C1 [Example 107, 6-(6-((1R,4R)-5-(1-acryloylazetidine-3-carbonyl)-2,5-diazabicyclo[2.2.1]heptan-2-yl)pyridin-3-yl)-4-methoxypyrazolo[1,5-a]pyridine-3-carbonitrile]	27	56	9	0.00291	108	
C=CC(=O)N1CC(CN2C[C@H]3C[C@@H]2CN3c2ccc(-c3cc(OC)c4c(C#N)cnn4c3)cn2)C1 [Example 108, 6-(6-((1R,4R)-5-((1-acryloylazetidin-3-yl)methyl)-2,5-diazabicyclo[2.2.1]heptan-2-yl)pyridin-3-yl)-4-methoxypyrazolo[1,5-a]pyridine-3-carbonitrile]	10	28	7	0.00291	55	
C=CC(=O)N1CC(F)(C(=O)N2CCN(c3ccc(-c4cc(OC)c5c(C#N)cnn5c4)cn3)CC2)C1 [Example 112, 6-(6-(4-(1-acryloyl-3-fluoroazetidine-3-carbonyl)piperazin-1-yl)pyridin-3-yl)-4-methoxypyrazolo[1,5-a]pyridine-3-carbonitrile]	20	16	9	0.00852	82	
C=CC(=O)N1CC(OC)(C(=O)N2CCC(n3ncc(-c4cc(OC)c5c(Cl)cnn5c4)c3C)CC2)C1 [Example 117, 1-(3-(4-(4-(3-chloro-4-methoxypyrazolo[1,5-a]pyridin-6-yl)-5-methyl-1H-pyrazol-1-yl)piperidine-1-carbonyl)-3-methoxyazetidin-1-yl)prop-2-en-1-one]	43	103	359	0.00318	814	
C=CC(=O)N1CC(CN2CCC(n3ncc(-c4cc(OC)c5c(Cl)cnn5c4)c3C)CC2)C1 [Example 118, 1-(3-((4-(4-(3-chloro-4-methoxypyrazolo[1,5-a]pyridin-6-yl)-5-methyl-1H-pyrazol-1-yl)piperidin-1-yl)methyl)azetidin-1-yl)prop-2-en-1-one]	41	56	239	0.00303	455	
COc1cc(-c2cnn(C3CCN(C(=O)C4CN(C(=O)C5=CCC5)C4)CC3)c2)cn2ncc(C#N)c12 [Example 137, 6-(1-(1-(1-(cyclobut-1-ene-1-carbonyl)azetidine-3-carbonyl)piperidin-4-yl)-1H-pyrazol-4-yl)-4-methoxypyrazolo[1,5-a]pyridine-3-carbonitrile]	5	15	4		49	
COc1cc(-c2cnn(C3CCN(CC4CN(C(=O)/C=C/CN(C)C)C4)CC3)c2)cn2ncc(C#N)c12 [Example 146, (E)-6-(1-(1-((1-(4-(dimethylamino)but-2-enoyl)azetidin-3-yl)methyl)piperidin-4-yl)-1H-pyrazol-4-yl)-4-methoxypyrazolo [1,5-a]pyridine-3-carbonitrile]	2		2	0.00306	51	80
COc1cc(-c2cnn(C3CCN(C(=O)C4CN(C(=O)/C=C/CN(C)C)C4)CC3)c2)cn2ncc(Cl)c12 [Example 174]	4		6	0.00242	194	139
COc1cc(-c2cnn(C3CCN(CC4CN(C(=O)/C=C/CN5CCCCC5)C4)CC3)c2)cn2ncc(C#N)c12 [Example 175, (E)-4-methoxy-6-(1-(1-((1-(4-(piperidin-1-yl)but-2-enoyl)azetidin-3-yl)methyl)piperidin-4-yl)-1H-pyrazol-4-yl)pyrazolo[1,5-a]pyridine-3-carbonitrile]	5		10	0.00204	90	52
C=CC(=O)N(C)c1ccc(C(=O)N2CCC(n3cc(-c4cc(OC)c5c(C#N)cnn5c4)cn3)CC2)cc1 [Example 178, N-(4-(4-(4-(3-cyano-4-methoxypyrazolo[1,5-a]pyridin-6-yl)-1H-pyrazol-1-yl)piperidine-1-carbonyl)phenyl)-N-methylacrylamide]	12		5	0.00131	61	44
C=CS(=O)(=O)N1CCC(C(=O)N2CCC(n3cc(-c4cc(OC)c5c(C#N)cnn5c4)cn3)CC2)CC1 [Example 186, 4-methoxy-6-(1-(1-(1-(vinylsulfonyl)piperi-dine-4-carbonyl)piperidin-4-yl)-1H-pyrazol-4-yl)pyrazolo[1,5-a]pyridine-3-carbonitrile]	5		8	0.01483	14	6
